Source: EPA's ToxRefDB 2

What was measured:
dog [1] = conditions: Sub-acute repeat dose toxicity, beagle, Oral, Gavage/Intubation, dose end: 14 day, group: systemic
rat [2] = conditions: Sub-acute repeat dose toxicity; sprague dawley; Oral; Gavage/Intubation; dose end: 14 day; group: systemic; systemic / clinical chemistry / [other] / [other] + systemic / clinical chemistry / 5' nucleotidase / 5' nucleotidase + systemic / clinical …
rat [3] = conditions: Prenatal developmental toxicity study, sprague dawley, Oral, Gavage/Intubation, dose end: 17 GD
rat [4] = conditions: Subchronic oral toxicity in rodents, fischer, Feed, dose end: 13 week
dog [5] = conditions: Chronic toxicity; beagle; Oral; Feed; dose end: 52 week; group: systemic; systemic / organ weight / adrenal gland / absolute + systemic / organ weight / adrenal gland / relative to body weight + systemic / …
rat [6] = conditions: Combined chronic toxicity/carcinogenicity; fischer; Oral; Feed; dose end: 24 month; group: systemic; systemic / in life observation / body weight / body weight + systemic / in life observation / body weight / body weight gain + systemic / …
mouse = conditions: Combined chronic toxicity/carcinogenicity; b6c3f1; Oral; Feed; dose end: 104 week; group: systemic; systemic / in life observation / body weight / body weight + systemic / in life observation / body weight / body weight gain + systemic / …
[7] = systemic / clinical chemistry / cholesterol / cholesterol + systemic / clinical chemistry / thyroid stimulating hormone (thyrotropin) (tsh…
[8] = systemic / clinical chemistry / thyroid stimulating hormone (thyrotropin) (tsh) / thyroid stimulating hormone (=thyrotropin) (tsh) + …
[9] = group: developmental, developmental / developmental malformation / bone / delayed ossification
[10] = group: maternal, systemic / in life observation / body weight / body weight gain + systemic / in life observation / food consumption / food consumption + …
[11] = group: cholinesterase, cholinesterase / cholinesterase / cholinesterase / plasma cholinesterase (che)
[12] = group: systemic, systemic / organ weight / kidney / relative to body weight + systemic / organ weight / liver / absolute + systemic / organ weight / liver / …

Compound: Cc1cc(NC(=O)C(=O)O)cc(C)c1Oc1ccc(O)c2c1CCC2
- LEL (dog [1]; [7]): 5 mg/kg/day
- NEL (dog [1]; [7]): < 5 mg/kg/day
- LOAEL (dog [1]; [8]): > 100 mg/kg/day
- NOAEL (dog [1]; [8]): ≥ 100 mg/kg/day
- LEL (rat [2]): 1 mg/kg/day
- LOAEL (rat [2]): > 1000 mg/kg/day
- NEL (rat [2]): < 1 mg/kg/day
- NOAEL (rat [2]): ≥ 1000 mg/kg/day

Compound: C[C@H]1[C@H](c2ccc(Cl)cc2)SC(=O)N1C(=O)NC1CCCCC1 [Hexythiazox]
- LEL (rat [3]; [9]): 720 mg/kg/day
- LOAEL (rat [3]; [9]): > 2160 mg/kg/day
- NEL (rat [3]; [9]): 240 mg/kg/day
- NOAEL (rat [3]; [9]): ≥ 2160 mg/kg/day
- LOAEL (rat [3]; group: maternal, systemic / in life observation / body weight / body weight gain + systemic / in life observation / food consumption / food consumption): 720 mg/kg/day
- LEL (rat [3]; [10]): 720 mg/kg/day
- NEL (rat [3]; [10]): 240 mg/kg/day
- NOAEL (rat [3]; [10]): 240 mg/kg/day
- LEL (rat [4]; [11]): 50 mg/kg/day
- LOAEL (rat [4]; [11]): > 350 mg/kg/day
- NEL (rat [4]; [11]): 7 mg/kg/day
- NOAEL (rat [4]; [11]): ≥ 350 mg/kg/day
- LEL (rat [4]; [12]): 50 mg/kg/day
- LOAEL (rat [4]; [12]): 50 mg/kg/day
- NEL (rat [4]; [12]): 7 mg/kg/day
- NOAEL (rat [4]; [12]): 7 mg/kg/day
- LEL (dog [5]): 13.1 mg/kg/day
- LOAEL (dog [5]): 13.1 mg/kg/day
- NEL (dog [5]): 2.87 mg/kg/day
- NOAEL (dog [5]): 2.87 mg/kg/day
- LEL (rat [6]): 163 mg/kg/day
- LOAEL (rat [6]): 163 mg/kg/day
- NEL (rat [6]): 23 mg/kg/day
- NOAEL (rat [6]): 23 mg/kg/day
- LEL (mouse): 267 mg/kg/day
- LOAEL (mouse): 267 mg/kg/day
- NEL (mouse): 41.6 mg/kg/day
- NOAEL (mouse): 41.6 mg/kg/day
